# From ChEMBL document CHEMBL1131296 (J Med Chem, 1998)
# How the values were obtained:
# D(2) dopamine receptor = D(2) dopamine receptor (Rattus norvegicus, UniProt P61169); assay: Binding affinity at native Dopamine receptor D2 in rat striatum by [3H]spiperone displacement.; type: tissue-based
# [1] = biological target: T1, Alpha-1B adrenergic receptor (Homo sapiens, UniProt P35368); assay: Binding affinity at human cloned Alpha-1B adrenergic receptor in chinese hamster ovary cells by [3H]prazosin displacement.; type: cell-based, CHO
# T1 sequence (P35368 whole entry): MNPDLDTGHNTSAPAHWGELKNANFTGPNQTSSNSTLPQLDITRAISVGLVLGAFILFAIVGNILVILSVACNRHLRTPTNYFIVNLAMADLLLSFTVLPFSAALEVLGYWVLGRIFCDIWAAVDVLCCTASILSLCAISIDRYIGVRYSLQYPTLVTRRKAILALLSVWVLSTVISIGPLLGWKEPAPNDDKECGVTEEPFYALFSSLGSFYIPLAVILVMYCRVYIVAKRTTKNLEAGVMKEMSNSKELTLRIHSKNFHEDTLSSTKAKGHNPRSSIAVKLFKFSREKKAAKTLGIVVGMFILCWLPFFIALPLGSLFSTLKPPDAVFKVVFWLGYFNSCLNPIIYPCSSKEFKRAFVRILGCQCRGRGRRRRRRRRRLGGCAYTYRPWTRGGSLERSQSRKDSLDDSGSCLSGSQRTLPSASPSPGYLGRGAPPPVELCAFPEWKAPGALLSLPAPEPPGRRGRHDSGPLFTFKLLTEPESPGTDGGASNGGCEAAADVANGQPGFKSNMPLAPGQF
# [2] = biological target: T2, Alpha-1D adrenergic receptor (Homo sapiens, UniProt P25100); assay: Binding affinity at human cloned Alpha-1D adrenergic receptor in chinese hamster ovary cells by [3H]prazosin displacement.; type: cell-based, CHO
# T2 sequence (P25100 whole entry): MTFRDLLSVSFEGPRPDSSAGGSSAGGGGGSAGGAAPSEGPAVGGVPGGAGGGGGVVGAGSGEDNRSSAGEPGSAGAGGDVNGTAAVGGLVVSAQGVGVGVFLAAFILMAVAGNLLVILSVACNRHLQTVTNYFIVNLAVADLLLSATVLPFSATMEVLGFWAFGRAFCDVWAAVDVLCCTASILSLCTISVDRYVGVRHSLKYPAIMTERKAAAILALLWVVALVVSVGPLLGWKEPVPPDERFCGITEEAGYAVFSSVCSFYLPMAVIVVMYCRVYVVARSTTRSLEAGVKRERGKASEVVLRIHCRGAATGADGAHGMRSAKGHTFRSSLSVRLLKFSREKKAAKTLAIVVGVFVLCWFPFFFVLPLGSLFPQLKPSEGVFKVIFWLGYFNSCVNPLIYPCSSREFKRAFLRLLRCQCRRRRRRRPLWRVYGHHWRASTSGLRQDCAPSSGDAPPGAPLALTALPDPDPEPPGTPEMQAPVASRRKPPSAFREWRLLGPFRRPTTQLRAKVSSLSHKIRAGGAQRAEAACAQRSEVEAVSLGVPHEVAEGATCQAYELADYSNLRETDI
# [3] = biological target: T3, Alpha-1A adrenergic receptor (Homo sapiens, UniProt P35348); assay: Binding affinity at human cloned Alpha-1A adrenergic receptor in chinese hamster ovary cells by [3H]-prazosin displacement.; type: cell-based, CHO
# T3 sequence (P35348 whole entry): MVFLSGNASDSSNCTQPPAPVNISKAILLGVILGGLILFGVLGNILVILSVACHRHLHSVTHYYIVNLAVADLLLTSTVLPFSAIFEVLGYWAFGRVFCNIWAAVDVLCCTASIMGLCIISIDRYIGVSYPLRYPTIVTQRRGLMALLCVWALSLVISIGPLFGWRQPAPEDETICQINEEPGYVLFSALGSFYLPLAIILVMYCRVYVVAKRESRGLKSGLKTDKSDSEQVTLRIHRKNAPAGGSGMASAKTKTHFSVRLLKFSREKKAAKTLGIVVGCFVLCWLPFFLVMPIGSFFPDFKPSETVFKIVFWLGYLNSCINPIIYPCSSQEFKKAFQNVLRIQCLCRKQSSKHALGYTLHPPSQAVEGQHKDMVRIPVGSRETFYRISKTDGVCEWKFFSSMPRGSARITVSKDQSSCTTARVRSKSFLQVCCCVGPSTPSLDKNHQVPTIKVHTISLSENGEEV
# [4] = biological target: T4, Adrenergic receptor alpha-2 (Rattus norvegicus, UniProt P22086+P19328+P22909); assay: Antagonism of the clonidine-induced depression of twitch responses of rat isolated prostatic vas deferens.
# T4 sequence (P22086 whole entry): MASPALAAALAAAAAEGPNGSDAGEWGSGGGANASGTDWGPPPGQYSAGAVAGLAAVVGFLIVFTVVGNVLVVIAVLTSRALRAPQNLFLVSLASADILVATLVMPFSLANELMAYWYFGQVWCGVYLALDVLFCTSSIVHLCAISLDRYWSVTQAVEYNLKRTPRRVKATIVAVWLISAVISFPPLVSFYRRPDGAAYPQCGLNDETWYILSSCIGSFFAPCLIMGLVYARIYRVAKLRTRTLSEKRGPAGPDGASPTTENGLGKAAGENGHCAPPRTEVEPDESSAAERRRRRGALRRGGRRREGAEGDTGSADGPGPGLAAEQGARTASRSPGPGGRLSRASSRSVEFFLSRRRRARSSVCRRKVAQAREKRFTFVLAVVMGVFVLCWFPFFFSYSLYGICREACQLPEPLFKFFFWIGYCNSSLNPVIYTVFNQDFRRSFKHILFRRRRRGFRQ
# T4 sequence (P19328 whole entry): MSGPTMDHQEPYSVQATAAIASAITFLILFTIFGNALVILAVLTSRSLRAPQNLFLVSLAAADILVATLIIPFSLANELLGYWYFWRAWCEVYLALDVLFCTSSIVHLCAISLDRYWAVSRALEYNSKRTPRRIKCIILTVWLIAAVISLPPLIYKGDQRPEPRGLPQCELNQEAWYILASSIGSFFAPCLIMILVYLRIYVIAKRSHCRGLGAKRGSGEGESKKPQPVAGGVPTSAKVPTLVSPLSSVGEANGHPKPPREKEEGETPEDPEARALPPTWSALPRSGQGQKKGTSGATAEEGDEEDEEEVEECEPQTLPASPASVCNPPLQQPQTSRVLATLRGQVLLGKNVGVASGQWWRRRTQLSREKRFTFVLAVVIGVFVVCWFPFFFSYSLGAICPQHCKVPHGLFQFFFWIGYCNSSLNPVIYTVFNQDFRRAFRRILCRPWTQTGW
# T4 sequence (P22909 whole entry): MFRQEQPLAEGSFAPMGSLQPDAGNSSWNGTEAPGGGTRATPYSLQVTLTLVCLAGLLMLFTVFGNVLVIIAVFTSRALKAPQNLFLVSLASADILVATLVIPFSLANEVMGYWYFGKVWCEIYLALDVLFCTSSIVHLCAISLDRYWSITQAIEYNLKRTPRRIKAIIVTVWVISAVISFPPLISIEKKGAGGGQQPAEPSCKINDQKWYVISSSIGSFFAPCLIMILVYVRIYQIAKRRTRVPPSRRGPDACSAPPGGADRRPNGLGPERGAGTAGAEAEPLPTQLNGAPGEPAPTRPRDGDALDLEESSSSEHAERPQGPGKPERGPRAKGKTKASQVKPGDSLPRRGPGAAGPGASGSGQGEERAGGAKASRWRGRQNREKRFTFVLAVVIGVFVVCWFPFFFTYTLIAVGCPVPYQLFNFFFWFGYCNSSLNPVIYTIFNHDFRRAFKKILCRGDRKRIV
# Chain of D(2) dopamine receptor (P61169 whole entry): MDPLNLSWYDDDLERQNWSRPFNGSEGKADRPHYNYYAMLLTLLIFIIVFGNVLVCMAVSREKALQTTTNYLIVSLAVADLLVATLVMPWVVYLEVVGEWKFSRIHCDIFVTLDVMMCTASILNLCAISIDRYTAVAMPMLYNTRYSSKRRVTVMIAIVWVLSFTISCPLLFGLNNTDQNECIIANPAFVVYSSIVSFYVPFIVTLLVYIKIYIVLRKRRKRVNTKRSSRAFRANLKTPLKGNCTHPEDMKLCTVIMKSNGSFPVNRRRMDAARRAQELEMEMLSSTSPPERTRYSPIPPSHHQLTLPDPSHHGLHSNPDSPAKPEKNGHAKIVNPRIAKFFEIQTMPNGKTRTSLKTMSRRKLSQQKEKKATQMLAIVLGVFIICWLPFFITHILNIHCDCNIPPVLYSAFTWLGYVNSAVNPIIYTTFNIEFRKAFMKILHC
Ki (D(2) dopamine receptor),Ki [1],Ki [2],Ki [3],pA2 [4],Structure (SMILES)
> 10000 nM,1.07 nM,0.724 nM,0.417 nM,< 5,COc1cc2nc(N(C)CCSSCCN(C)C(=O)c3ccco3)nc(N)c2cc1OC
,0.11 nM,0.195 nM,0.166 nM,6.66,COc1cc2nc(N(C)CCCCCCN(C)C(=O)c3ccco3)nc(N)c2cc1OC
